Data on 15 compounds can be found in PubChem BioAssay (NCI).

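Five concentrations, 48 hours, 96-well plates. At the TGI there is no net growth.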

Among the test systems are SK-MEL-2 melanoma; LOX IMVI melanoma; M14 melanoma; 786-0 renal; MDA-N; HCT-15 colon; OVCAR-3 ovarian; DU-145 prostate; NCI/ADR-RES ovarian; A549 NSCLC; BT-549 breast; EKVX NSCLC; CAKI-1 renal; HCT-116 colon; MDA-MB-231 breast; KM12 colon; TK-10 renal; MALME-3M melanoma; RPMI-8226 leukemia.
Common to all, as to test: growth of human tumour cells (NCI), 48 h

Regarding `c1ccc(N/N=C2\CC(c3ccccc3)Oc3ccccc32)cc1` (stereo not given), the TGI is over 100 µM in the test with SK-MEL-2 melanoma; over 100 µM in the test with LOX IMVI melanoma; over 100 µM in the test on M14 melanoma; 66.8 µM with 786-0 renal; over 100 µM with MDA-N; over 100 µM in the test on HCT-15 colon. Besides, the TGI is over 100 µM with OVCAR-3 ovarian; over 100 µM in the test on DU-145 prostate; over 100 µM in the test with NCI/ADR-RES ovarian; over 100 µM in the test on A549 NSCLC; over 100 µM in the test on BT-549 breast; 83.9 µM in the test with EKVX NSCLC. Also, the TGI in the test on CAKI-1 renal, in the test on HCT-116 colon, with MDA-MB-231 breast, with KM12 colon, in the test with TK-10 renal and with MALME-3M melanoma was over 100 µM each time.

On to `CCCSc1cc(Cl)c(C)cc1S(=O)(=O)n1cc[nH]c1=O`, for which the TGI with SK-MEL-2 melanoma, in the test on LOX IMVI melanoma, in the test on M14 melanoma, in the test on 786-0 renal, in the test with MDA-N and in the test on HCT-15 colon was over 100 µM in each case. For the same compound, the TGI with OVCAR-3 ovarian, with DU-145 prostate, in the test on NCI/ADR-RES ovarian, in the test on A549 NSCLC, with BT-549 breast and in the test on EKVX NSCLC was over 100 µM throughout. In addition, the TGI in the test with CAKI-1 renal, with HCT-116 colon, in the test on MDA-MB-231 breast, in the test on KM12 colon, in the test with TK-10 renal and in the test on MALME-3M melanoma was over 100 µM throughout.

As to `COC(=O)c1ccccc1C1CN=NC12Cc1c(C)cc(C)cc1C2=O` (stereo not given), the TGI in the test on SK-MEL-2 melanoma, in the test on LOX IMVI melanoma, in the test with M14 melanoma, in the test with 786-0 renal, with MDA-N and with HCT-15 colon was over 100 µM in each case. For the same compound, the TGI in the test with OVCAR-3 ovarian, in the test with DU-145 prostate, in the test on NCI/ADR-RES ovarian, in the test on A549 NSCLC, with BT-549 breast and with EKVX NSCLC was over 100 µM throughout. In addition, the TGI with CAKI-1 renal, with HCT-116 colon, in the test on MDA-MB-231 breast, in the test on KM12 colon, with TK-10 renal and in the test with MALME-3M melanoma was over 100 µM in each case.

In the case of `COc1ccc(-c2oc3c(CC(=O)O)cccc3c(=O)c2OC)cc1`, the TGI with SK-MEL-2 melanoma, in the test on M14 melanoma, in the test with 786-0 renal, with MDA-N, with OVCAR-3 ovarian and in the test on DU-145 prostate was over 100 µM in each case. Also, the TGI is over 100 µM in the test with NCI/ADR-RES ovarian; over 100 µM in the test with A549 NSCLC; over 100 µM with BT-549 breast; over 100 µM in the test with EKVX NSCLC; 42.6 µM in the test with CAKI-1 renal; over 100 µM in the test with HCT-116 colon. The TGI in the test on MDA-MB-231 breast, in the test with TK-10 renal and in the test with MALME-3M melanoma was over 100 µM in each case.

Take `COC1Cc2c(C)c(OC(C)=O)c3cccnc3c2O1` (stereo not given): the TGI with SK-MEL-2 melanoma is 31.2 µM; with M14 melanoma it was 27.7 µM; in the test with 786-0 renal, 34.3 µM; with MDA-N it was 46.3 µM; in the test on RPMI-8226 leukemia, over 100 µM; in the test on HCT-15 colon, 22.1 µM. The TGI with OVCAR-3 ovarian is 70.5 µM; in the test on DU-145 prostate it was 31 µM; with NCI/ADR-RES ovarian, 67.4 µM; with A549 NSCLC, 34 µM; in the test on BT-549 breast, 41.5 µM; in the test with EKVX NSCLC, 30.6 µM. Further, the TGI is over 100 µM in the test on CAKI-1 renal; over 100 µM in the test on HCT-116 colon; over 100 µM with MDA-MB-231 breast; over 100 µM in the test with KM12 colon; over 100 µM in the test on TK-10 renal; 31.9 µM in the test on MALME-3M melanoma.

As for `CCOC(=O)Cc1ccc(Nc2nc3cc(C(F)(F)F)ccc3nc2C(=O)OCC)cc1`, the TGI in the test on SK-MEL-2 melanoma, with LOX IMVI melanoma, with M14 melanoma, with 786-0 renal, in the test with MDA-N and in the test on HCT-15 colon was over 100 µM each time. In addition, the TGI in the test on OVCAR-3 ovarian, with DU-145 prostate, in the test with NCI/ADR-RES ovarian, in the test with A549 NSCLC, with BT-549 breast and in the test on EKVX NSCLC was over 100 µM in each case. For the same compound, the TGI with CAKI-1 renal, in the test with HCT-116 colon, with KM12 colon, with TK-10 renal and with MALME-3M melanoma was over 100 µM in each case.

Regarding `Cc1cc(Cl)nc(NC(=O)CSc2ccc(Cl)cc2)n1`, the TGI in the test with SK-MEL-2 melanoma, in the test with LOX IMVI melanoma, with M14 melanoma, in the test on 786-0 renal, in the test with MDA-N and with RPMI-8226 leukemia was over 100 µM each time. The TGI with HCT-15 colon, with OVCAR-3 ovarian, in the test on DU-145 prostate, with NCI/ADR-RES ovarian, in the test with A549 NSCLC and with BT-549 breast was over 100 µM each time. The TGI in the test with EKVX NSCLC, in the test on HCT-116 colon, in the test on MDA-MB-231 breast, in the test with KM12 colon, in the test with TK-10 renal and with MALME-3M melanoma was over 100 µM each time.

With `COC(=O)[C@@H]1O[C@]12C(CO[Si](C)(C)C(C)(C)C)OC(n1ccc(=O)[nH]c1=O)C2O[Si](C)(C)C(C)(C)C` (stereo not given in full), the TGI in the test on SK-MEL-2 melanoma is 33.2 µM; in the test with LOX IMVI melanoma, 42.5 µM; with M14 melanoma, 30.7 µM; in the test on 786-0 renal, over 100 µM; in the test on MDA-N, over 100 µM; in the test on RPMI-8226 leukemia, over 100 µM. The TGI in the test with HCT-15 colon is over 100 µM; with OVCAR-3 ovarian it was 30.8 µM; with DU-145 prostate, 61.1 µM; in the test on NCI/ADR-RES ovarian, over 100 µM; in the test on A549 NSCLC, over 100 µM; with BT-549 breast, 47.7 µM. Besides, the TGI with EKVX NSCLC was 62.6 µM; in the test with CAKI-1 renal, 72 µM; with HCT-116 colon, over 100 µM; in the test with MDA-MB-231 breast it was over 100 µM; in the test with KM12 colon it was 77.9 µM; in the test on TK-10 renal, 83.9 µM.

As to `Cc1c(O)c(OC2OC(CO)C(O)C(O)C2O)cc2c1CC[C@@H]1C2(C)C(=O)C[C@]2(C)[C@@H]([C@@](C)(O)C(O)/C=C/C(C)(C)O)[C@H](O)C[C@@]12C` (stereo not given in full), the TGI with SK-MEL-2 melanoma, in the test with LOX IMVI melanoma, in the test with M14 melanoma, with 786-0 renal, in the test on MDA-N and in the test on HCT-15 colon was over 100 µM in each case. In addition, the TGI in the test on OVCAR-3 ovarian, with DU-145 prostate, in the test on NCI/ADR-RES ovarian, in the test with A549 NSCLC, with BT-549 breast and in the test on EKVX NSCLC was over 100 µM in each case. Moreover, the TGI in the test on CAKI-1 renal, in the test with HCT-116 colon, in the test on MDA-MB-231 breast, in the test on KM12 colon, with TK-10 renal and in the test on MALME-3M melanoma was over 100 µM throughout.

Take `CCCCCCCCCCCCCCCCOP(=O)(O)OP(=O)(O)OCC1OC(n2ccc(N)nc2=O)CC1O` (stereo not given): the TGI with SK-MEL-2 melanoma, in the test on LOX IMVI melanoma, with M14 melanoma, with 786-0 renal, with MDA-N and in the test with RPMI-8226 leukemia was over 100 µM throughout. The TGI in the test on HCT-15 colon, in the test with OVCAR-3 ovarian, with NCI/ADR-RES ovarian, with A549 NSCLC, in the test with BT-549 breast and with EKVX NSCLC was over 100 µM throughout. Moreover, the TGI with CAKI-1 renal, in the test on HCT-116 colon, with MDA-MB-231 breast, in the test with KM12 colon, in the test on TK-10 renal and in the test on MALME-3M melanoma was over 100 µM throughout.

With `O=C1CC2[C@@H](N3CCCC3)CCC(N1Cc1ccccc1)C2(O)O` (stereo not given in full), the TGI in the test on LOX IMVI melanoma, in the test on M14 melanoma, in the test with 786-0 renal, in the test on MDA-N, in the test with HCT-15 colon and in the test on OVCAR-3 ovarian was over 100 µM each time. In addition, the TGI in the test on DU-145 prostate, in the test on NCI/ADR-RES ovarian, with A549 NSCLC, in the test on BT-549 breast, in the test on EKVX NSCLC and with CAKI-1 renal was over 100 µM in each case. Also, the TGI with HCT-116 colon, in the test with MDA-MB-231 breast, in the test on KM12 colon, in the test on TK-10 renal and in the test with MALME-3M melanoma was over 100 µM throughout.

With `Cc1cc(S(=O)(=O)Nc2nc(N)n(-c3cnc4ccccc4n3)n2)c(S)cc1Cl`, the TGI in the test with SK-MEL-2 melanoma, with LOX IMVI melanoma, in the test on M14 melanoma, in the test with 786-0 renal, in the test on MDA-N and with HCT-15 colon was over 100 µM in each case. In addition, the TGI with OVCAR-3 ovarian, in the test with DU-145 prostate, in the test on NCI/ADR-RES ovarian, with A549 NSCLC, in the test on BT-549 breast and in the test on EKVX NSCLC was over 100 µM each time. For the same compound, the TGI in the test with CAKI-1 renal, in the test with HCT-116 colon, in the test on MDA-MB-231 breast, in the test on KM12 colon, with TK-10 renal and in the test with MALME-3M melanoma was over 100 µM throughout.

On to `CC1CC(N)=Nc2ccccc2N1Cc1ccccc1` (stereo not given), for which the TGI is 27.4 µM in the test with SK-MEL-2 melanoma; 29.3 µM in the test on M14 melanoma; over 100 µM in the test with 786-0 renal; 39.6 µM with MDA-N; 17.2 µM with RPMI-8226 leukemia; 29.9 µM in the test on HCT-15 colon. Moreover, the TGI stood at 24.9 µM in the test with OVCAR-3 ovarian; 32.7 µM with DU-145 prostate; 28.4 µM with NCI/ADR-RES ovarian; 32.7 µM in the test with A549 NSCLC; 26 µM in the test on BT-549 breast; 63.9 µM in the test on EKVX NSCLC. The TGI was 25.2 µM in the test on CAKI-1 renal; over 100 µM in the test on HCT-116 colon; 27.4 µM with MDA-MB-231 breast; 28.2 µM in the test on KM12 colon; 28.2 µM with TK-10 renal; 15.4 µM with MALME-3M melanoma.

In the case of `NC(=O)/N=C(\N)NC(=O)c1ccccc1`, the TGI with SK-MEL-2 melanoma, in the test on LOX IMVI melanoma, in the test with M14 melanoma, in the test with 786-0 renal, with MDA-N and with HCT-15 colon was over 100 µM throughout. The TGI in the test with OVCAR-3 ovarian, in the test on DU-145 prostate, with NCI/ADR-RES ovarian, with A549 NSCLC, in the test with BT-549 breast and with EKVX NSCLC was over 100 µM each time. In addition, the TGI in the test with CAKI-1 renal, with HCT-116 colon, in the test with MDA-MB-231 breast, with KM12 colon, in the test with TK-10 renal and in the test with MALME-3M melanoma was over 100 µM throughout.

With `Cc1ccc2c(c1)C(=O)/C(=C1/CCc3ccc(C)cc31)C2`, the TGI in the test with SK-MEL-2 melanoma, in the test on LOX IMVI melanoma, in the test with M14 melanoma, in the test with 786-0 renal, with MDA-N and in the test on RPMI-8226 leukemia was over 100 µM throughout. Besides, the TGI in the test on HCT-15 colon, in the test on OVCAR-3 ovarian, in the test with DU-145 prostate, with NCI/ADR-RES ovarian, with A549 NSCLC and in the test with BT-549 breast was over 100 µM each time. The TGI in the test with EKVX NSCLC, with HCT-116 colon, with MDA-MB-231 breast, in the test on KM12 colon, with TK-10 renal and in the test with MALME-3M melanoma was over 100 µM in each case.
